According to patent EP0539588A1, “AMINE DERIVATIVE” (NIPPON SODA CO., LTD., priority 1990, dated 1992):
Where two headings read alike, the source gives them in different places.

Key:
Cotton aphids = assay: Efficacy against cotton aphids (spray on cucumber leaves); type: in vivo; details: for mortality at 125 ppm: 168 h, read-out: Control E fficacy (7 days later) 125ppm
Procedure: Test Example 1: Efficacy against cotton aphids
Cotton aphids were inoculated at the rate of 30-50 aphids per plot on 10 days old cucumber leaves grown in 10 cm pot by using small brush respectively. The aphids injured during inoculation were eliminated after one day, then the compound solution adjusted to 125 ppm concentration by dilution emulsifiable concentrate according to the recipe of the Example 6 with water was sprayed thereto. The aphids were allowed to stand in incubator maintained at 25 °C and 65% R.H., then counted the number of living aphids after 7 days whereby the control ratio was determined in comparison with the untreated plot.

[1] = system: resistant-strain of planthoppers for organophosphate and carbamate insecticides; assay: Efficacy against planthoppers (rice seedling dip); type: in vivo; details: Oryza sativa, 120 h, read-out: Mortality (5days later) 125 ppm
Text: Test Example 2: Efficacy against planthoppers
Young seedlings of rice plant at the stage of 7 days after germination were dipped for 30 seconds in the compound solution of the emulsifiable concentrate according to the recipe of Example 6 adjusted to 125 ppm concentration by diluting with water. After seedlings were dried, they were put into the inside of test tubes and 10 third instar larva of resistant-strain of planthoppers for organophosphate and carbamate insecticides were respectively inoculated in each test tube. The test tubes were shielded with gauze and allowed to stand in the incubator maintained at 25°C and 65% R.H., then the percentage killed were counted after 5 days.

[2] = 125 ppm spray of emulsifiable concentrate (Example 6) on cucumber leaves, living aphids counted after 7 days, compared with the untreated plot, 25 °C, 65% R.H.
[3] = rice seedlings dipped 30 seconds in 125 ppm solution, 10 third instar larva per test tube, percentage killed after 5 days, 25°C, 65% R.H.

## Cc1nc(N(C)C)nc(OC(=O)N(C)C)c1C [Comparative Compound A, Pyrimicarb, reference compound]
Cotton aphids; [2]
  Control E fficacy (7 days later) 125ppm: 0%

## CCOC(=O)CC(SP(=S)(OC)OC)C(=O)OCC (stereo not shown) [Comparative Compound B, Malathion, reference compound]
[1]
  mortality at 125 ppm: 0%

## O=C1C=C(NCc2ccc(Cl)nc2)CCC1 [Compound No. 1, 1-(2-chloro-5-pyridylmethylamino)-1-cyclohexene-3-on]
Cotton aphids
  mortality at 125 ppm: 100%
[1]
  mortality at 125 ppm: 100%

## Cn1c(NCc2ccc(Cl)nc2)cc(=O)n(C)c1=O [Compound No. 70, 4-(2-chloro-5-pyridylmethylamino)-1,3-dimethyluracil]
[1]; [3]
  mortality at 125 ppm: 100%

## Cn1c(NCc2ccc(Cl)nc2)c([N+](=O)[O-])c(=O)n(C)c1=O [Compound No. 71, 4-(2-chloro-5-pyridylmethylamino)-1,3-dimethyl-5-nitrouracil]
[1]; [3]
  mortality at 125 ppm: 100%

## Cc1cc(NCc2ccc(Cl)nc2)cc(=O)o1 [Compound No. 77, 4-(2-chloro-5-pyridylmethylamino)-6-methylpyran-2-on]
[1]
  mortality at 125 ppm: 100%

## O=C1CCCC(NCc2ccc(Cl)nc2)=C1Cl [compound 23]
[1]; [3]
  mortality at 125 ppm: 100%

## CC1CCC(NCc2ccc(Cl)nc2)=CC1=O (stereo not shown) [compound 29]
Cotton aphids; [2]
  mortality at 125 ppm: 100%
[1]; [3]
  mortality at 125 ppm: 100%

## CC1(C)CCC(NCc2ccc(Cl)nc2)=CC1=O [compound 30]
[1]; [3]
  mortality at 125 ppm: 100%

## CSC1CCC(NCc2ccc(Cl)nc2)=CC1=O (stereo not shown) [compound 31]
Cotton aphids; [2]
  mortality at 125 ppm: 100%
[1]; [3]
  mortality at 125 ppm: 100%

## CC1CC(=O)C=C(NCc2ccc(Cl)nc2)C1 (stereo not shown) [compound 34]
[1]; [3]
  mortality at 125 ppm: 100%

## CSC1CCC(N(C)Cc2ccc(Cl)nc2)=CC1=O (stereo not shown) [compound 42]
[1]; [3]
  mortality at 125 ppm: 100%

## O=C1C=C(NCc2cnc(Cl)s2)CCC1 [compound 59]
Cotton aphids; [2]
  mortality at 125 ppm: 100%
[1]; [3]
  mortality at 125 ppm: 100%

## CN(Cc1cnc(Cl)s1)C1=CC(=O)CCC1 [compound 60]
Cotton aphids; [2]
  mortality at 125 ppm: 100%
[1]; [3]
  mortality at 125 ppm: 100%

## Cc1cc(NCc2ccc(Cl)nc2)c([N+](=O)[O-])c(=O)n1C [compound 69]
[1]; [3]
  mortality at 125 ppm: 100%

## CN1C(=O)C([N+](=O)[O-])=C(NCc2ccc(Cl)nc2)N(C)S1(=O)=O [compound 73]
[1]; [3]
  mortality at 125 ppm: 100%

## O=C1C=C(NCc2ccc(Cl)nc2)CCO1 [compound 74]
Cotton aphids; [2]
  mortality at 125 ppm: 100%
[1]; [3]
  mortality at 125 ppm: 100%

## CC1CC(NCc2ccc(Cl)nc2)=CC(=O)O1 (stereo not shown) [compound 75]
Cotton aphids; [2]
  mortality at 125 ppm: 100%
[1]; [3]
  mortality at 125 ppm: 100%

## O=C1C=C(NCc2ccc(Cl)nc2)CSC1 [compound 80]
[1]; [3]
  mortality at 125 ppm: 100%

## CN(Cc1ccc(Cl)nc1)C1=CC(=O)OCC1 [compound 82]
Cotton aphids; [2]
  mortality at 125 ppm: 100%
[1]; [3]
  mortality at 125 ppm: 100%

## O=C1C=C(NCc2ccc(Cl)nc2)CO1 [compound 83]
Cotton aphids; [2]
  mortality at 125 ppm: 100%
[1]; [3]
  mortality at 125 ppm: 100%

## CN(Cc1ccc(Cl)nc1)C1=CC(=O)OC1 [compound 84]
Cotton aphids; [2]
  mortality at 125 ppm: 100%
[1]; [3]
  mortality at 125 ppm: 100%

## CCN(Cc1ccc(Cl)nc1)C1=CC(=O)OC1 [compound 85]
Cotton aphids; [2]
  mortality at 125 ppm: 100%
[1]; [3]
  mortality at 125 ppm: 100%

## CCCN(Cc1ccc(Cl)nc1)C1=CC(=O)OC1 [compound 86]
Cotton aphids; [2]
  mortality at 125 ppm: 100%
[1]; [3]
  mortality at 125 ppm: 100%

## O=C1C=C(N(Cc2ccc(Cl)nc2)C2CC2)CO1 [compound 88]
Cotton aphids; [2]
  mortality at 125 ppm: 100%
[1]; [3]
  mortality at 125 ppm: 100%

## CC(C)CN(Cc1ccc(Cl)nc1)C1=CC(=O)OC1 [compound 89]
Cotton aphids; [2]
  mortality at 125 ppm: 100%
[1]; [3]
  mortality at 125 ppm: 100%

## C=CCN(Cc1ccc(Cl)nc1)C1=CC(=O)OC1 [compound 91]
Cotton aphids; [2]
  mortality at 125 ppm: 100%
[1]; [3]
  mortality at 125 ppm: 100%

## O=C1C=C(N(Cc2ccc(Cl)nc2)C(=O)C2CC2)CO1 [compound 96]
[1]; [3]
  mortality at 125 ppm: 100%

## CON(Cc1ccc(Cl)nc1)C1=CC(=O)OC1 [compound 98]
Cotton aphids; [2]
  mortality at 125 ppm: 100%
[1]; [3]
  mortality at 125 ppm: 100%

## O=C1OCC(NCc2ccc(Cl)nc2)=C1Br [compound 103]
Cotton aphids; [2]
  mortality at 125 ppm: 100%
[1]; [3]
  mortality at 125 ppm: 100%

## CN(Cc1ccc(Cl)nc1)C1=C(F)C(=O)OC1 [compound 104]
Cotton aphids; [2]
  mortality at 125 ppm: 100%
[1]; [3]
  mortality at 125 ppm: 100%

## O=C1OCC(N(Cc2ccc(Cl)nc2)C2CC2)=C1F [compound 105]
Cotton aphids; [2]
  mortality at 125 ppm: 100%
[1]; [3]
  mortality at 125 ppm: 100%

## O=C1C=C(NCc2ccc(Cl)nc2)CS1 [compound 111]
Cotton aphids; [2]
  mortality at 125 ppm: 100%
[1]; [3]
  mortality at 125 ppm: 100%

## CN(Cc1ccc(Cl)nc1)C1=CC(=O)SC1 [compound 112]
Cotton aphids; [2]
  mortality at 125 ppm: 100%
[1]; [3]
  mortality at 125 ppm: 100%

## CC1OC(=O)C=C1NCc1ccc(Cl)nc1 (stereo not shown) [compound 116]
Cotton aphids; [2]
  mortality at 125 ppm: 100%
[1]; [3]
  mortality at 125 ppm: 100%

## CC1OC(=O)C=C1N(C)Cc1ccc(Cl)nc1 (stereo not shown) [compound 117]
Cotton aphids; [2]
  mortality at 125 ppm: 100%
[1]; [3]
  mortality at 125 ppm: 100%

## O=C1C=C(NCc2cnc(Cl)s2)CO1 [compound 143]
Cotton aphids; [2]
  mortality at 125 ppm: 100%
[1]; [3]
  mortality at 125 ppm: 100%

## CN(Cc1cnc(Cl)s1)C1=CC(=O)OC1 [compound 144]
Cotton aphids; [2]
  mortality at 125 ppm: 100%
[1]; [3]
  mortality at 125 ppm: 100%

## CN1CC(NCc2ccc(Cl)nc2)=CC1=O [compound 161]
[1]; [3]
  mortality at 125 ppm: 100%

## CN(Cc1ccc(Cl)nc1)C1=CC(=O)CC1 [compound 175]
Cotton aphids; [2]
  mortality at 125 ppm: 100%
[1]; [3]
  mortality at 125 ppm: 100%

## CC1=C(N(C)Cc2ccc(Cl)nc2)CCC1=O [compound 187]
[1]; [3]
  mortality at 125 ppm: 100%
